Values quoted from earlier work, collected in US8911424B2, “Methods and devices for preventing catheter related urinary tract infections” (Ethicon, Inc., priority 2011, dated 2014).

Settings: aqueous solubility

Structure (SMILES): [Br][Ag] [Silver Bromide]
- Solubility (g/100 g H2O): 0.000014 g/100 g H2O
